Results taken from publication PMC3960879 (Biology, 2013).
Like-named read-outs stand apart in the source and are kept apart here.

Legend:
F17fG lectin domain = assay: CFG mammalian printed glycan array version 2 (experiment 400), F17fG; format: binding, Escherichia coli; details: CFG glycan array version 2; F17G at 200 µg/mL; SEM in parentheses
From the text: (§1) The slide was dried under a stream of nitrogen.

F17eG lectin domain = assay: CFG mammalian printed glycan array version 2 (experiment 400), F17eG; format: binding, Escherichia coli; details: CFG glycan array version 2; F17G at 200 µg/mL; SEM in parentheses
From the text: as §1

F17bG lectin domain = F17bG lectin domain (Escherichia coli, UniProt Q47200); details: CFG glycan array version 2; F17G at 200 µg/mL; SEM in parentheses
Chain of F17bG lectin domain (Q47200 23-199): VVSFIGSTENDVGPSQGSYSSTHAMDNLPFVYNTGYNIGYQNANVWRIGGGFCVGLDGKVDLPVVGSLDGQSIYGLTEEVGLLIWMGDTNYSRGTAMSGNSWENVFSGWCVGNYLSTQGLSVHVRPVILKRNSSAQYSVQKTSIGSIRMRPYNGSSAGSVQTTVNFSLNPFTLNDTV
Procedure: (§2) A microarray presenting 264 different glycans (mammalian printed array version 2) was used to evaluate if the F17G variant lectin domains differ in the range of glycan receptors that they recognize, thereby establishing tropism. The microarray was set up within the Consortium for Functional Glycomics (CFG) ([20], and supplemental data). Binding of F17G (200 µg/mL) was detected using anti-F17G polyclonal rabbit IgG (10 µg/mL), followed by fluorescently labelled goat anti-rabbit polyclonal antibodies (IgG-488, 5 µg/mL).
(§3) A microarray presenting 264 different glycans (mammalian printed array version 2 from the CFG, experiment 400) was used to evaluate whether the F17G variant lectin domains differ in the range of glycan receptors that they can recognize, thereby establishing strain-dependent tropism. […] The glycan array screening has been repeated for F17aG only on printed array version 4.1 (experiment 2053) (Figure 1).
(§4) Printed array version 2 at the Consortium for Functional Glycomics was used for glycan array screening of the variant F17G receptor binding domains. Slides were printed, with six replicates for each glycan, using glycan spotting concentrations of 100 μM, at the Consortium Carbohydrate Synthesis/Protein Expression Core D located at the Scripps Research Institute onto Schott Nexterion H slides (Schott Cat. No. 1070936B). Slide conditioning: preprinted slides were soaked in deionized water for 5 minutes at room temperature and dried under a stream of nitrogen. TSM buffer (20 mM Tris-HCl, pH 7.4, or MOPS 20 mM; 150 mM NaCl; 2 mM CaCl2, 2 mM MgCl2) was used as wash buffer (TSM buffer + 0.05% Tween 20) or binding buffer (TSM buffer + 0.05% Tween 20 + 1% BSA). (1) F17G was diluted to 200 μg/mL (Figure 1) in TSM binding buffer. (2) 50 μL of F17G was applied to the printed surface and coverslipped. (3) The slide was incubated, protected from light, in a humidified chamber for 1 hour at RT. (4) The slide was washed once in TSM wash buffer. 50 μL of the anti-F17G (10 μg/mL) polyclonal rabbit IgG were applied, coverslipped and incubated for 1 h at RT. (5) The slide was washed once in TSM wash buffer. Fifty μL of fluorescently labelled secondary goat anti-rabbit polyclonal antibodies (IgG-488, 5 µg/mL) were applied, coverslipped and incubated for 1 h at RT. (6) Slide was removed, followed by the coverslip, and washed for 10 s each in TSM wash buffer, TSM wash buffer lacking Tween 20, and deionized water. The slide was dried under a stream of nitrogen. (7) The binding image was read in a Perkin Elmer Microscanarray XL4000 scanner and tiff file of image stored. (8) Image analysis was performed using Imagene (V.6) image analysis software. (9) Raw data results files were generated in Excel format and uploaded to the Consortium database as .dat files. (10) Imagene data was uploaded to the database as .txt files.

F17aG lectin domain = F17aG lectin domain (Escherichia coli, UniProt Q99003); details: CFG glycan array version 2; F17G at 200 µg/mL; SEM in parentheses
Chain of F17aG lectin domain (Q99003 23-199): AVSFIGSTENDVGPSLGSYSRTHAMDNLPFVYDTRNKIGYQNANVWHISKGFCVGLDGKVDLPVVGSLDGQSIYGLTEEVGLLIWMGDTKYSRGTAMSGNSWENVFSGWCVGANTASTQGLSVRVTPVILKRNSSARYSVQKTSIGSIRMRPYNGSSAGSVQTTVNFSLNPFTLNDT
Procedure: as §2, §3, §4

F17dG lectin domain = F17dG lectin domain (Escherichia coli, UniProt Q47199); details: CFG glycan array version 2; F17G at 200 µg/mL; SEM in parentheses
Chain of F17dG lectin domain (Q47199 23-199): as the sequence (Q99003 23-199) above, with L16P, D33N, R35G, K37N, H47R, K90N counted along it
Procedure: as §2, §3, §4

[1] = biological target: T1, F17aG receptor-binding domain (Escherichia coli, UniProt Q99003); assay: biochemical; details: SPR steady state, 25 °C, pH 7.4
T1 construct: variants of the lectin domains with oligolysine (4Lys) tails have been constructed; made in house; host or cells: E. coli (periplasm)
T1 sequence (Q99003 23-199): as the sequence (Q99003 23-199) above
Procedure: The affinity profiles were determined by surface plasmon resonance (SPR) measurements using a BiaCore 3000 instrument (GE Healthcare). […] The proteins were covalently immobilized on CM5 sensor chips (Biacore AB) to an average density of 2000 RU (resonance units in pg/mm^2). On each chip, one flow cell was coated with a camel single domain antibody for use as a reference cell. The other three flow cells (Fc2, Fc3 and Fc4) were coated with three different F17G variants. Carbohydrate concentrations ranging from 10 µM to 10 mM in running buffer (20 mM Hepes, pH 7.4; 150 mM NaCl; 3 mM EDTA and 0.005% surfactant Tween 20) were incubated for one minute on all flow cells simultaneously, at 25 °C and at a flow rate of 30 µL/min. Complete dissociation of the carbohydrates in running buffer was verified before starting a new binding cycle. All binding cycles were performed in duplicate, including a zero concentration cycle (injection of pure running buffer). All analysis was done using the BIAeval software. In each case the equilibrium resonance signal from the reference cell was subtracted from that of the various F17G flow cells (2-1, 3-1, 4-1). A Langmuir binding isotherm with a 1:1 stoichiometry was fitted to the data, from which the equilibrium dissociation constants, Kd, were obtained.

[2] = read-out: Affinity range (Kd class), F17aG
[3] = good fit for at least three related experiments, read-out: dissociation constant Kd, F17aG

Molecule | Relative Fluorescence Units (RFU), averaged over six replicates, F17fG (F17fG lectin domain) | Relative Fluorescence Units (RFU), averaged over six replicates, F17eG (F17eG lectin domain) | Relative Fluorescence Units (RFU), averaged over six replicates, F17bG (F17bG lectin domain) | Relative Fluorescence Units (RFU), averaged over six replicates, F17aG (F17aG lectin domain) | Relative Fluorescence Units (RFU), averaged over six replicates, F17dG (F17dG lectin domain) | Kd [1, 2] [mM] | Kd [1, 3] [mM]
CC(=O)N[C@H]1[C@H](O[C@H]2[C@@H](O)[C@@H](CO)O[C@H](OCCCN)[C@@H]2NC(C)=O)O[C@H](CO)[C@@H](O)[C@@H]1O [GlcNAcβ1,3GalNAcα-Sp8] | 10,999 (2,929) RFU | 33,330 (7,321) RFU | 15,182 (2,925) RFU | 25,971 (3,174) RFU | 6,635 (2,735) RFU |  | 
GlcNAcβ1-3Galβ1,4GlcNAcβ-Sp8 | 28,888 (6,925) RFU | 49,223 (5,377) RFU | 15,483 (1,729) RFU | 51,880 (5,023) RFU | 17,991 (4,401) RFU |  | 
Galβ1,4GlcNAcβ-Sp0 | 1,279 (106) RFU | 19,659 (4,594) RFU | 1,974 (289) RFU | 1,703 (1,070) RFU | 249 (94) RFU |  | 
GlcNAcβ1,3Galβ1,3GalNAcα-Sp8 | 31,661 (2,807) RFU | 47,984 (3,178) RFU | 10,655 (880) RFU | 7,713 (866) RFU | 3,999 (1,481) RFU |  | 
GlcNAcβ1,4(GlcNAcβ1,6)GalNAcα-Sp8 | 19,830 (4,279) RFU | 38,200 (2,394) RFU | 12,960 (1,692) RFU | 4,520 (2,808) RFU | 1,680 (92) RFU |  | 
CC(=O)N[C@H]1[C@H](O[C@H]2[C@@H](O)[C@@H](CO)O[C@@H](O[C@H]3[C@H](O)[C@@H](O)C(O)O[C@@H]3CO)[C@@H]2O)O[C@H](CO)[C@@H](O)[C@@H]1O[C@@H]1O[C@H](CO)[C@H](O)[C@H](O)[C@H]1O[C@@H]1O[C@@H](C)[C@@H](O)[C@@H](O)[C@@H]1O (stereo partly drawn) [Fucα1,2Galβ1,3GlcNAcβ1,3Galβ1,4Glc] |  |  |  |  |  | > 100 | 
CO[C@@H]1O[C@H](CO)[C@@H](O)[C@H](O)[C@H]1NC(C)=O [Me β N-acetylglucosamine] |  |  |  |  |  | 1 to 10 | 1.2
CC(=O)N[C@H]1[C@H](OCCCN)O[C@H](CO)[C@@H](O)[C@@H]1O [GlcNAcβ-Sp8] | 10,738 (2,670) RFU | 31,863 (4,615) RFU | 12,289 (1,168) RFU | 22,909 (3,087) RFU | 2,514 (365) RFU |  | 
GlcNAcβ1,3(GlcNAcβ1,6)GalNAcα-Sp8 |  | 46,840 (6,520) RFU | 12,183 (1,524) RFU | 35,858 (4,079) RFU | 23,756 (2,105) RFU |  | 
GlcNAcβ1,2Galβ1,3GalNAcα-Sp8 | 563 (125) RFU | 305 (148) RFU | 1,016 (239) RFU | 5,082 (4,924) RFU | 75 (35) RFU |  | 
GalNAcβ1,3GalNAcα-Sp8 | 10,691 (3,009) RFU | 50,791 (5,749) RFU | 17,169 (4,228) RFU |  | 11,034 (1204) RFU |  | 
COc1ccc(O[C@@H]2O[C@H](CO)[C@@H](O[C@@H]3O[C@H](CO)[C@H](O)[C@H](O)[C@H]3NC(C)=O)[C@H](O)[C@H]2NC(C)=O)cc1 [GalNAcβ1,4GlcNAcβ1-methoxy phenyl] |  |  |  |  |  | 1 to 10 | 
GlcNAcβ1,3Galβ1,4Glcβ-Sp0 | 26,336 (7,255) RFU | 54,005 (5,715) RFU | 13,149 (2,286) RFU | 57,013 (5,191) RFU | 29,181 (3,281) RFU |  | 
CC(=O)N[C@H]1[C@H](O[C@H]2[C@@H](O)[C@@H](CO)O[C@@H](O[C@H]3[C@H](O)[C@@H](O)C(O)O[C@@H]3CO)[C@@H]2O)O[C@H](CO)[C@@H](O[C@@H]2O[C@H](CO)[C@H](O)[C@H](O)[C@H]2O)[C@@H]1O (stereo partly drawn) [Galβ1,4GlcNAcβ 1,3Gal β1,4Glc] |  |  |  |  |  | 10 to 100 | 
Gal β1,4 GlcNAc |  |  |  |  |  | 1 to 10 | 
CO[C@H]1O[C@H](CO)[C@@H](O)[C@H](O)[C@H]1NC(C)=O [Me α N-acetylglucosamine] |  |  |  |  |  |  | 9.8
GlcNAcβ1,6(Galβ1,3)GalNAcα-Sp8 | 3,206(997) RFU |  | 6,017 (587) RFU | 12,541 (1,115) RFU | 3,492 (658) RFU |  | 
CC(=O)N[C@H]1C(O)O[C@H](CO)[C@H](O)[C@@H]1O[C@@H]1O[C@H](CO)[C@H](O)[C@H](O)[C@H]1O (stereo partly drawn) [Galβ1,3GalNAc] |  |  |  |  |  | 10 to 100 | 
